Reference: patent US9261498B2, “Biomarker for sensitivity to mTOR inhibitor therapy in kidney cancer” (The Regents of the University of California, priority 2005, dated 2016)
Entries after “also recorded” stand apart in the source; their conditions may differ.

Assays:
HIF-1α = test: Immunoblot of HIF-1α protein in VHL knockdown RCC cells; assay type: cell-based, human; settings: 1 and 10 nM CCI-779, 24 hours
Procedure: (a) SN12C-CSCG and SN12C-VHLshRNA cell were treated with vehicle, 1 nM or 10 nM of CCI-779 and lysed 24 hours later. Lysates were subjected to immunoblotting for HIF-1α, HIF-2α, GLUT-1, CA-IX, p-eIF4G, p-S6 Ribosomal protein. Equal protein loading was verified using anti-β-actin antibody. (b) HIF-1α expression was probed by immunoblotting in SN12C-MSCV-5′TOP-HIF-1α cDNA (left panel) and SN12C-MSCV-HIF-1α cDNA (tight panel) post 24 hours of vehicle, 1 nM or 10 nM of CCI-779.
Cells and xenograft tumors were lysed in ECB lysis buffer (see, e.g. Kondo et al., Cancer Cell 1, 237-46 (2002)) or high-detergent buffer (2% SDS), (see, e.g. Chen et al., Nat Med 10, 33-9 (2004)), respectively, supplemented with complete protease and phosphatase inhibitor cocktails (Calbiochem). […] Bound antibody was detected using enhanced chemiluminescence (ECL, Amersham). For VEGF ELISA quantification, cells were plated in 6 well plates (1×10^5 per well). […] Thirty-six hours later, VEGF ELISA (R&D Systems) was performed according to the manufacturer's instructions, using a Fisher Plate reader. […]
Cells and xenograft tumors were lysed in ECB lysis buffer or high-detergent buffer (2% SDS), respectively, supplemented with complete protease and phosphatase inhibitor cocktails (Calbiochem). […] Bound antibody was detected using enhanced chemiluminescence (ECL, Amersham). […]

VEGF = VEGF immunohistochemistry on xenograft tumors; assay type: in vivo, SCID mice; settings: CCI-779 treated vs vehicle
Procedure: FIGS. 2A-2C. Effects of VHL knockdown on angiogenesis. (a) Microvessel density was quantified by CD-31 immunolabeling (arrows) in the xenograft tumors, and difference between CCI-779 treated (+) and vehicle (−) treated mice quantified (n=6 in each group). P<0.0033 for microvessel density counts in VHL shRNA compared to vector only (see blue bars). (b) Similar number of cells were plated and maintained in 10% serum rich media, in the presence (+) or absence (−) of 10 nM CCI-779. Thirty-six hours later, conditioned media was analyzed by anti-VEGF ELISA and cell extracts prepared for protein quantification. VEGF values were normalized to total cellular protein. Error bars equal one standard deviation (n=3). (c) Immunohistochemistry for VEGF protein was performed on paraffin embedded tumor xenografts from vehicle and CCI-779 treated mice.
Xenograft tumor samples were fixed in 10% buffered formalin and embedded in paraffin. […] Microvessel density was quantified by as described previously (Weidner, N. et al. J Natl Cancer Inst 84, 1875-87 (1992)). Briefly, microvessel density was determined by light microscopy in areas of the xenograft tumor containing highest numbers of capillaries and small venules (microvessels) per area (i.e. neovascular “hotspots”) by scanning the tumor sections at low power (40× and 100×). […]

CO[C@H]1C[C@@H]2CC[C@@H](C)[C@@](O)(O2)C(=O)C(=O)N2CCCC[C@H]2C(=O)O[C@H]([C@H](C)C[C@@H]2CC[C@@H](OC(=O)C(C)(CO)CO)[C@H](OC)C2)CC(=O)[C@H](C)/C=C(\C)[C@@H](O)[C@@H](OC)C(=O)[C@H](C)C[C@H](C)/C=C/C=C/C=C/1C [CCI-779]
HIF-1α protein levels (HIF-1α): dramatically reduced; also recorded: reduction; also recorded: decrease
VEGF protein expression in VHL knockdown xenografts (VEGF): reversed; also recorded: reduced
